According to patent US9845292B2 (Max-Planck-Gesellschaft zur Förderung der Wissenschaften …, priority 2013, dated 2017):
Entries after “also recorded” stand apart in the source; their conditions may differ. Read-outs that look alike come from different tables or passages of the source.

Legend:
N2a neuroblastoma cells = assay: N2a cellular assay (neurite outgrowth); assay type: cell-based; conditions: for optimal concentration for enhancement of neurite outgrowth: U-shaped dose-dependency, N2a-cells
Protocol: At day one N2a cells were plated into 24-well plates with cover slips (pretreated with polylysine) at a density of 35,000 cells/well and cultured with DMEM (incl. FCS 10% and Pen/Strep 1%) for 24 h. Next, cells were transfected with 80 ng expression plasmids encoding Venus as well as 720 ng pRK5 (mock transfection) in a total volume of 500 μl starvation media containing different concentrations of compounds or DMSO for 36 h (media without FCS; induction of neurite outgrowth). Therefore media was removed and replaced by 400 μl DMEM (empty). Next an equivalent volume of plasmids were given to 50 μl OPTIMEM and incubated for 5 min at RT. Additionally 1.5 μl Lipofectamine 2000 was separately dissolved in 50 μl OPTIMEM. After 5 min both solutions (plasmids and Lipofactamine 2000 containing media) were combined and incubated again for another 20 min. After that 100 μl of this mixture was given to 400 μl media per well. (See also protocol of the provider—Life Technologies).
On the next day cells were washed with PBS and incubated for 30 min with 300 μl PFA (4%) and sucrose (5%) to fix cells. After fixation cells were washed three times, mounted onto microscope slides using 4 μl Vectashield (mounting media) and analyzed by fluorescence microscopy. Each bar represents the mean of the neurite length of 30-50 cells after the indicated treatment (FIGS. 1-2).

FKBP52 = target: T1, FKBP52 (Homo sapiens, UniProt Q02790); assay: Fluorescence polarization binding assay, FK1-domain of FKBP52WT with tracer F2 (selectivity FKBP51 vs. FKBP52); conditions: selectivity factor over FKBP52
T1 construct: Purified FK1-domains of FKBP51WT (4.5 nM) with F4 (3 nM), FKBP52WT (400 nM) with F2 (20 nM); implied by Ni-NTA purification) (N); made in house; host or cells: E. coli BL21(DE3)pLysS
T1 sequence (Q02790 50-138 limits assumed): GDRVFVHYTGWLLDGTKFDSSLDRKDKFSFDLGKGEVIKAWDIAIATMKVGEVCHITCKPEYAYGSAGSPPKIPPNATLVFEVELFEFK
Procedure, shortened: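 Compounds titrated against FK1 domain of FKBP52 WT with fluorescent tracer F2, in duplicate; competition curves fitted to four-parameter logistic for IC50. Ki derived from exact competitive-binding equation using tracer Kd; selectivity expressed as Ki(FKBP51)/Ki(FKBP52).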

FKBP51 = target: T2, FKBP51 (Homo sapiens, UniProt Q13451); assay: Fluorescence polarization binding assay, FK1-domain of FKBP51WT with tracer F4; design: Purified FK1-domains of FKBP51WT (4.5 nM) with F4 (3 nM), FKBP52WT (400 nM) with F2 (20 nM); made in house; host or cells: E. coli BL21(DE3)pLysS
T2 sequence (Q13451 42-130 limits assumed): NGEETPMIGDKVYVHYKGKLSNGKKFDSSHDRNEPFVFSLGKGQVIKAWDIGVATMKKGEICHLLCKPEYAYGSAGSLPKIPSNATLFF
Procedure, shortened: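 Competitive fluorescence polarization with tracer F4 and FKBP51 FK1 domain (wild type), compounds titrated by serial dilution from DMSO stock, run in duplicate. IC50 from four-parameter logistic fit; inhibition constants from an exact competitive-binding equation using tracer and inhibitor Kd values.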

[1] = FKBP52WT (400 nM) with F2 (20 nM), A series
[2] = compounds B01-C25, read-out: Affinity(Ki) for FKBP51
[3] = FK1-domain of FKBP51WT (4.5 nM) with F4 (3 nM), A series, read-out: Affinity(Ki) for FKBP51

C[C@]12CCC(=O)C=C1CC[C@@H]1[C@@H]2[C@@H](O)C[C@]2(C=O)[C@@H](C(=O)CO)CC[C@@H]12 [Aldosterone, reference compound]
optimal concentration for enhancement of neurite outgrowth (N2a neuroblastoma cells): 100 nM

COc1ccc(CC[C@@H](OC(=O)[C@@H]2CCCCN2C(=O)[C@H](c2cc(OC)c(OC)c(OC)c2)C2CCCCC2)c2cccc(OCC(=O)O)c2)cc1OC [Compound A17, 2-(3-((R)-1-(((S)-1-((S)-2-Cyclohexyl-2-(3,4,5-trimethoxyphenyl)acetyl)piperidine-2-carbonyl)oxy)-3-(3,4-dimethoxyphenyl)propyl)phenoxy)acetic acid]
Ki(FKBP51)/Ki(FKBP52) (FKBP52; [1]): ++++ (>5000 ++++) | rescue of reduced neurite length triggered by Ru26988 (N2a neuroblastoma cells; 1 μM Ru26988, 10 nM A17, FIG. 2A, 2B): rescues reduced neurite length | protection of neurite outgrowth from the suppressing effect of high steroid concentrations (N2a neuroblastoma cells; 1 μM aldosterone or 1 μM RU26988, FIG. 2A-2C): able to protect the neutrite outgrowth of N2a from the suppressing effect of high steroid concentrations | effect of high concentrations on neuronal differentiation (N2a neuroblastoma cells; FIG. 1A, 1D): do not lead to reduction of the neuronal differentiation | rescue of reduction of neurite outgrowth triggered by aldosterone (N2a neuroblastoma cells; aldosterone 1 μM, FIG. 2B, 2C): reverts the reduction of neurite outgrowth | enhancement of neurite outgrowth of N2a cells (N2a neuroblastoma cells; compared to unselective FKBP ligand FK506, FIG. 1): stronger enhancement of neurite outgrowth; also recorded: promote neurite outgrowth in N2a cells more potently compared to FK506 | Ki (FKBP51): < 0.1 µM

COc1cc([C@@H](C(=O)N2CCCC[C@H]2C(=O)OCCCOCc2ccccc2)C2CCCCC2)cc(OC)c1OC [Compound C21, (S)-3-(benzyloxy)propyl-1-((S)-2-cyclohexyl-2-(3,4,5-trimethoxyphenyl)acetyl) piperidine-2-carboxylate]
Ki(FKBP51)/Ki(FKBP52) (FKBP52; compounds B01-C25): ++ (>50 ++) | Ki (FKBP51; [2]): 1 to 10 µM

COCCCCOC(=O)[C@@H]1CCCCN1C(=O)[C@H](c1cc(OC)c(OC)c(OC)c1)C1CCCCC1 [Compound C23, (S)-4-methoxybutyl-1-((S)-2-cyclohexyl-2-(3,4,5-trimethoxyphenyl)acetyl) piperidine-2-carboxylate]
Ki(FKBP51)/Ki(FKBP52) (FKBP52; compounds B01-C25): +++ (>500 +++) | Ki (FKBP51; [2]): 1 to 10 µM

COc1cc([C@@H](C(=O)N2CCCC[C@H]2C(=O)O[C@H](C)COCc2ccccc2)C2CCCCC2)cc(OC)c1OC [Compound C24]
Ki(FKBP51)/Ki(FKBP52) (FKBP52; compounds B01-C25): +++ (>500 +++) | Ki (FKBP51; [2]): 1 to 10 µM

C=CC[C@@H]1/C=C(\C)C[C@H](C)C[C@H](OC)[C@H]2O[C@@](O)(C(=O)C(=O)N3CCCC[C@H]3C(=O)O[C@H](/C(C)=C/[C@@H]3CC[C@@H](O)[C@H](OC)C3)[C@H](C)[C@@H](O)CC1=O)[C@H](C)C[C@@H]2OC [FK506, reference compound]
concentrations at which the neurite outgrowth stimulating effect is lost (N2a neuroblastoma cells; FIG. 1B): 300 to 1000 nM

C=CC[C@H](C(=O)N1CCCC[C@H]1C(=O)O[C@H](CCc1ccc(OC)c(OC)c1)c1cccc(OCC(=O)O)c1)c1cc(OC)c(OC)c(OC)c1 [Reference A01, 2-(3-((R)-3-(3,4-Dimethoxyphenyl)-1-(((S)-1-((S)-2-(3,4,5-trimethoxyphenyl)pent-4-enoyl)piperidine-2-carbonyl)oxy)propyl)phenoxy)acetic acid]
Ki(FKBP51)/Ki(FKBP52) (FKBP52; [1]): not selective (<5 not selective) | Ki (FKBP51; [3]): 10 to 50 µM

COc1ccc(CC[C@@H](OC(=O)[C@@H]2CCCCN2C(=O)[C@@H](CC2CC2)c2cc(OC)c(OC)c(OC)c2)c2cccc(OCC(=O)O)c2)cc1OC [Reference A07, 2-(3-((R)-1-(((S)-1-((S)-3-cyclopropyl-2-(3,4,5-trimethoxyphenyl)propanoyl)piperidine-2-carbonyl)oxy)-3-(3,4-dimethoxyphenyl)propyl)phenoxy)acetic acid]
Ki(FKBP51)/Ki(FKBP52) (FKBP52; [1]): not selective (<5 not selective) | Ki (FKBP51; [3]): 10 to 50 µM

CC#C[C@]1(O)CC[C@H]2[C@@H]3C=CC4=CC(=O)C=C[C@]4(C)[C@H]3[C@@H](O)C[C@@]21C [Ru26988, RU26988, reference compound]
optimal concentration for enhancement of neurite outgrowth (N2a neuroblastoma cells): 100 nM
